Several values for one entry are separate records, joined by “and”; a condition that tells them apart may be missing. Equal entries are not always repeated.
Legend:
Type in all cases: cell-based
320 non-olfactory GPCRs [1] = molecular target: 320 non-olfactory GPCRs (Homo sapiens, UniProt P11229)
320 non-olfactory GPCRs [2] = molecular target: T1, 320 non-olfactory GPCRs (Homo sapiens, UniProt O15552)
T1 construct: expressed in transfected cells; host or cells: HTLA cells

320 non-olfactory GPCRs [3] = molecular target: 320 non-olfactory GPCRs (Homo sapiens, UniProt P30411)
320 non-olfactory GPCRs [4] = molecular target: T2, 320 non-olfactory GPCRs (Homo sapiens, UniProt P43115); details: receptor PTGER3; replicate values, Fig_4g
T2 construct: expressed in transfected cells; host or cells: HTLA cells
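Wherever Fold of Basal is given: compound tested at 1 µM final concentration.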
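Wherever GPCRome agonism screen response is given: fold over basal response of each receptor without drug.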

T1 sequence (O15552 whole entry): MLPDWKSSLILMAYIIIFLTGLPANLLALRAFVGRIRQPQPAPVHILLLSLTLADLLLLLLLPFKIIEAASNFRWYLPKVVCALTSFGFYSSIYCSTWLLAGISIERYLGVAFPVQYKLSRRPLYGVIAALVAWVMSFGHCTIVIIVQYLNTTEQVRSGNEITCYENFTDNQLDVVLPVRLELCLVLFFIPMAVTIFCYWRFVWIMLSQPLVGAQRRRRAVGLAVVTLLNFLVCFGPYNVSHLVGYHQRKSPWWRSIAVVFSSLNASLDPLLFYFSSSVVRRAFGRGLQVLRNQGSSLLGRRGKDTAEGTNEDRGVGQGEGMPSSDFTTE
Chain of 320 non-olfactory GPCRs (Homo sapiens, UniProt P11229) (P11229 whole entry): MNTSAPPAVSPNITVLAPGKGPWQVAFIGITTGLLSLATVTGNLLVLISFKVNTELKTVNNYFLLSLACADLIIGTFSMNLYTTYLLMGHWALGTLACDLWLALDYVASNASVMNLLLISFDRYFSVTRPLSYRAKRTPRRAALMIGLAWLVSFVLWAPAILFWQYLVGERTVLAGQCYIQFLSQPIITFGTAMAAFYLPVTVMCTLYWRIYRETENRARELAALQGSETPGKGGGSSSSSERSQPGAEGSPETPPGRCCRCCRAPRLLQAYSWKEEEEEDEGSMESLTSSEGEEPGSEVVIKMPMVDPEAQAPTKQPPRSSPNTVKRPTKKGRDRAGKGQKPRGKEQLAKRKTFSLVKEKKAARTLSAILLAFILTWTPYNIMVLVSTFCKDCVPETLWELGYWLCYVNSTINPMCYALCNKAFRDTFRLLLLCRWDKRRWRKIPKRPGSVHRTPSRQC
Chain of 320 non-olfactory GPCRs (Homo sapiens, UniProt P30411) (P30411 whole entry): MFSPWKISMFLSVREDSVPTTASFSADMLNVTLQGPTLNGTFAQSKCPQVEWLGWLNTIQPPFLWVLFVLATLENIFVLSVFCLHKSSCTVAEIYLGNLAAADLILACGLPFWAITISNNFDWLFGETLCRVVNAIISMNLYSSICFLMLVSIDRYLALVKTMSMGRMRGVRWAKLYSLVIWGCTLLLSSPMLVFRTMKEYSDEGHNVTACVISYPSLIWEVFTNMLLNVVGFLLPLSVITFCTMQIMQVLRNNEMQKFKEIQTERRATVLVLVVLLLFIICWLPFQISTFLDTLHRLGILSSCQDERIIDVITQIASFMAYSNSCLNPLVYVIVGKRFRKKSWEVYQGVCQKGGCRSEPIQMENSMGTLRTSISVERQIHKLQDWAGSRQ
T2 sequence (P43115 whole entry): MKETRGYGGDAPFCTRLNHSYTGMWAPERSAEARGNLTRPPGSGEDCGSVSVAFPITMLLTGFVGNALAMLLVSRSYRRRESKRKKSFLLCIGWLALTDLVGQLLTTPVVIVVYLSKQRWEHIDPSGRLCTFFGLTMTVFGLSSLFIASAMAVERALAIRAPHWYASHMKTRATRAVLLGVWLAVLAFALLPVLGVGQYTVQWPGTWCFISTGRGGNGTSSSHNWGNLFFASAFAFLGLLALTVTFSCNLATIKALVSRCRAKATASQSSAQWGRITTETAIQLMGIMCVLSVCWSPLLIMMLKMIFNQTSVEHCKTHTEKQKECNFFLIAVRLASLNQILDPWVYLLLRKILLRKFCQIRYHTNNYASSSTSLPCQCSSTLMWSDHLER

CCOc1cccc2cc(C(C)NCC3(O)CCCCC3)oc12 (stereo not shown) [O4LE6]
Fold of Basal (320 non-olfactory GPCRs [1]): 0.6962 and 0.7878 and 0.5081 and 0.6515
Fold of Basal (320 non-olfactory GPCRs [2]): 0.7744 and 0.8932 and 0.7484 and 0.9767
Fold of Basal (320 non-olfactory GPCRs [3]): 1.112 and 0.7321 and 0.9055 and 1.0914
GPCRome agonism screen response (320 non-olfactory GPCRs [4]): 0.07165 and 0.9825 and 0.5999
